Columns and labels:
Type in all cases: in vivo
Botrytis elliptica [1] = test: Field trials, control of lily gray mold; disease severity; conditions: antagonist 1 × 10^5 cfu/ml or 100 ppm flusilazole, three applications, recorded 14 days after the last application, scale 0 to 4
Experimental: Lily fields in Taipei and I-Lan counties were selected for this experiment. Suspensions of the B190 and Botrytis elliptica were adjusted to about 1×10^5 cfu/ml and 1×10^3 conidia/ml, respectively, before application. 100 ppm of flusilazole (37% Emulsion, Du Pont, USA) was used for comparison. After spraying B190 or flusilazole by sprayer (MS sprayer, Taiwan), 5 ml of the spore suspension of Botrytis elliptica was sprayed onto each 100-day-old lily plant. A total of three sprays at 10-day intervals were applied. Each treatment consisted of 100 plants with 4 replicates. Every replicate was planted on a plot, which was 30 m long and 2 m wide. All the treatments were arranged based on randomized complete block design. Two weeks after the last spray, disease severity was assessed and analyzed as above-mentioned.

Botrytis elliptica [2] = test: B190 formulations on Botrytis elliptica infected lilies in greenhouse; conditions: B190 […] cfu/ml, 3 applications (10 days/interval), flusilazole 100 p.p.m., recorded ten days after the last application, scale 0 to 4
Experimental: Bacillus amyloliquefaciens B190 was cultured in a flask containing 1% rice chaff and 99% de-ion water. The flask was then positioned on a rotary shaker located in an incubator. B190 was incubated at 25±5° C. for 3 days. Thereafter, the B190-containing solution was filtered for application in the following experiments.
Different chemicals or adjuvants were added to the B190-containing filtrate for investigating their inhibitive capability on Botrytis elliptica infected lilies in greenhouse. The chemicals include 0.025% Ca(OH)2, 0.05% Na2CO3, 0.025% NH4NO3 and 0.025% K2HPO4. The adjuvants comprise 0.1% Tween 80 and 0.05% mineral oil.
Unformulated B. amyloliquefaciens B190 and 100 p.p.m. flusilazole were used as controls. In addition, uninoculated and inoculated lily plants with B. elliptica were also included as controls. Applications of these treatments were carried out when flowering tissues reached 30 to 50 mm in diameter. Treatments were applied three times with intervals of 10 days. Thereafter, 5 ml of B. elliptica spore suspension (1×10^3 conidia/ml) was inoculated on lily plants except the uninoculated control. Each different treatment had four replicates, and 5 lily plants were applied in every replicate. All treatments were arranged in a randomized complete block design. After inoculating B. elliptica for ten days, disease severity was scored as described above.

Botrytis elliptica [3] = test: B190 formulations on Botrytis elliptica infected lilies in field; conditions: B190 1 × 10^5 cfu/ml, 3 applications (10 days/interval), fourteen days after the last application, scale 0 to 4
Experimental: Bacillus amyloliquefaciens B190 was cultured in a flask containing 1% rice chaff and 99% de-ion water. Then the flask was positioned on a rotary shaker located in an incubator. B190 was incubated at an ambient temperature of 25±5° C. for 3 days. Thereafter, the cultured B190 was collected by means of centrifugation (3000 rpm/10 minutes; Tomy CM-60 RN, Seiko, Japan). The pellet mixed with 1% (w/v) kaolin was used as a wettable powder (WP). The pellet mixed with 0.025% (v/v) heavy mineral oil and 0.1% Tween 80 was served as an emulsion (E).
Different chemicals or adjuvants were added to the wettable powder, emulsion or B190-containing filtrate as described above for investigating their inhibitory ability on lilies in the field. These chemicals include 0.025% Ca(OH)2, 0.05% Na2CO3, 0.025% NH4NO3 and 0.025% K2HPO4. The adjuvants comprise 0.1% Tween 80 and 0.05% mineral oil.
Unformulated B. amyloliquefaciens B190 and 100 p.p.m. flusilazole were used as controls. In addition, uninoculated and inoculated lily plants with B. elliptica were also included as controls. Applications of these treatments were carried out when flowering tissues reached 100 to 120 mm in diameter. Treatments were applied three times with intervals of 10 days. […] After inoculating B. elliptica for ten days, disease severity was scored as described above.

SMILES: C[Si](Cn1cncn1)(c1ccc(F)cc1)c1ccc(F)cc1 [Flusilazole, flusilazole]
- Disease severity (Botrytis elliptica [1]; I-Lan): 0.80 b
- Disease severity (Botrytis elliptica [1]; Taipei): 0.31 bc
- Disease severity (Botrytis elliptica [2]): 0.32 ef
- Disease severity (Botrytis elliptica [3]; I: two trials in I-Lan county): 0.23 cd
- Disease severity (Botrytis elliptica [3]; II: two trials in NTU experimental farm): 0.39 bc

From US6960342B2, “Method for inhibiting pathogenic fungi in plants using Bacillus amyloliquefaciens” (National Taiwan University, priority 2002, dated 2005)
